The numbers were not newly measured in patent US20130237476A1, “ADIPOSE TISSUE TARGETED PEPTIDES” (ABLARIS THERAPEUTICS INC., priority 2012, published 2013), which cites them from elsewhere.

Where no end group is shown, it is not given here. [ ]: non-standard residue; d: D form. Ex = not defined here

Data set [1] deals with prohibitin. Conditions: Kolonin et al., Nat Med 2004; prohibitin expressed in adipose tissue.
Data set [2] deals with visceral adipose tissue (white fat).
For data set [3] the following is noted: diastereomeric peptide with 5th and 9th residues as L-analogs; comparator not stated.

Regarding CKGGRAKDC [adipose targeting peptide], in data set [1], the association with prohibitin entry is recorded as “associates with prohibitin”. As for “CKGGRAKDC-GG-D(KLAKLAKKLAKLAK) (CKGGRAKDCGG[dK][dL][dA][dK][dL][dA][dK][dK][dL][dA][dK][dL][dA][dK]; cysteine pairing not given here) [ABL-1, targeting peptide operably linked to an apoptotic therapeutic peptide]”, the obesity reversal result in data set [2] (animal models, after resorption of established white fat) is listed as “rapid obesity reversal”. In data set [2] (targets prohibitin in adipose vascular endothelial cells), the “ablation of visceral adipose tissue” value is recorded as “cause ablation of visceral adipose tissue”. “D,L-(KExAKExAK)2 (K[Ex]AK[Ex]AKK[Ex]AK[Ex]AK; reading uncertain; also: D/L diastereomeric residues, positions not given here) [diasteriomeric peptide in which the 5th and 9th residues were replaced with L-analogs to disrupt alpha helicity]”: in data set [3], the hemolytic activity entry is “greatly reduced”.
